The results in this text go back to patent US12030868B2, “Prodrugs of CGRP antagonists” (Pfizer Ireland Pharmaceuticals, priority 2018, dated 2024).

Where a name gives a salt, the structure may show the parent alone.

Series [1] in a line: Caco-2 permeability assay. The series is classed as in vitro ADME, human. As to conditions: human, Caco-2 monolayer, donor 10 μM, 37° C., pH 7.4; for Papp A→B at 90 min, 10 μM: apical to basolateral; for Papp B→A at 90 min, 10 μM: basolateral to apical. The procedure: (§1) Caco-2 Permeability Assay
(§2) The Caco-2 cells are cultured to confluency, trypsinized and seeded onto a filter transwell insert at a density of ^˜32,000 cells/well in DMEM cell culture medium. Cells are grown in a humidified atmosphere of 5% CO2 at 37° C. Following an overnight attachment period (24 h after seeding), the cell medium is replaced with fresh medium in both the apical and basolateral compartments every other day. The cell monolayers are used for transport studies 21 days post seeding after measuring the TEER values ([…]). The apical sides and basolateral sides are washed consecutively with HBSS 2.5% (v/v), HEPES (pH 7.4) or HBSS 2.5% (v/v), HEPES 10% (v/v), and Fetal Bovine Serum (pH 7.4) at 37° C. in an incubator under an atmosphere of 5% CO2.
(§3) Donor working solution is prepared by dilution of DMSO stock of test article or positive control with transport media to 10 μM.
(§4) For A→B directional transport, the donor working solution (with test article or positive control, with or without Pgp inhibitor) is added to the apical (A) compartment and the transport media as receiver working solution is added to the basolateral (B) compartment. For B→A directional transport, the donor working solution (with positive control or test article, with or without Pgp inhibitor) is added to the basolateral (B) compartment and transport media as receiver working solution is added to the apical (A) compartment.
(§5) The cells are incubated in a humidified atmosphere of 5% CO2 at 37° C. for 90 minutes.
(§6) At the end of the incubation, samples are taken from both donor and receiver compartments and transferred into 96-well assay plates containing internal standard solution (IS) in each well. After centrifugation, the supernatant solutions are transferred to clean 96 well plates and analyzed by LC-MS/MS. The MS detection is performed using a Sciex API 4000 instrument. Each compound is analyzed by reversed phase HPLC.
(§7) The parameters Papp (apparent permeability) and efflux ratio are calculated as follows: Papp=(dQ/dt)×(1/C0)×(1/A) Efflux ratio=Papp[B→A]/Papp[A→B] • where dQ/dt is the permeability rate, C0 is the initial concentration in the donor compartment, and A is the surface area of the cell monolayer (0.33 cm^2). The Papp value is a rate measured in cm/s.
(§8) Comparing the efflux ratios generated in the presence and absence of a Pgp inhibitor identifies whether the test article is a Pgp substrate.
(§9) Recovery is calculated as follows: % Recovery=(Total compound mass in donor and receiver compartments at the end of the incubation/Initial compound mass in the donor compartment)×100.
On the technique in general: Caco-2 cells form a polarised layer with tight junctions and transporters.

The test system of the next series is Caco-2 cells. Kind of series: Caco-2 permeability assay. In kind it is in vitro ADME, human. As to conditions: Caco-2 monolayer, donor 10 μM, 90 minutes, 37° C., pH 7.4; for Papp A-B: apical to basolateral; for Papp B-A: basolateral to apical. How it is done: as §1, §2, §3, §4, §5, §6, §7, §8, §9

As to `CCCCCCN(C)C(=O)OCn1cc2cc(C[C@@H](NC(=O)N3CCC(c4cc5ccccc5n(COC(=O)N(C)CCCCCC)c4=O)CC3)C(=O)N3CCN(C4CCN(C)CC4)CC3)cc(C)c2n1` [Example 93, {5-[(2R)-2-({4-[1-({[hexyl(methyl)carbamoyl]oxy}methyl)-2-oxo-1,2-dihydroquinolin-3-yl]piperidine-1-carbonyl}amino)-3-[4-(1-methylpiperidin-4-yl)piperazin-1-yl]-3-oxopropyl]-7-methyl-2H-indazol-2-yl}methyl N-hexyl-N-methylcarbamate], in series [1], the Papp A→B at 90 min, 10 μM was 1.13 ×10⁻⁶ cm/s and the Papp B→A at 90 min, 10 μM worked out at 10.7 ×10⁻⁶ cm/s.
In the case of “(R)-(7-methyl-5-(3-(4-(1-methylpiperidin-4-yl)piperazin-1-yl)-3-oxo-2-(4-(2-oxo-1,2-dihydroquinolin-3-yl)piperidine-1-carboxamido)propyl)-1H-indazol-1-yl)methyl heptanoate compound with (R)-(7-methyl-5-(3-(4-(1-methylpiperidin-4-yl)piperazin-1-yl)-3-oxo-2-(4-(2-oxo-1,2-dihydroquinolin-3-yl)piperidine-1-carboxamido)propyl)-2H-indazol-2-yl)methyl heptanoate (1:1) [Example 61]”, in the series with Caco-2 cells, the “Papp A-B” value was found to be 2.5 ×10⁻⁶ cm/s and the “Papp B-A” value turned out to be 1.96 ×10⁻⁶ cm/s.
In series [1], `Cc1cc(C[C@@H](NC(=O)N2CCC(c3cc4ccccc4n(COC(=O)C(C)(C)C)c3=O)CC2)C(=O)N2CCN(C3CCN(C)CC3)CC2)cc2cn(COC(=O)C(C)(C)C)nc12` [Example 4, {5-[(2R)-2-{[4-(1-{[(2,2-dimethylpropanoyl)oxy]methyl}-2-oxo-1,2-dihydroquinolin-3-yl)piperidine-1-carbonyl]amino}-3-[4-(1-methylpiperidin-4-yl)piperazin-1-yl]-3-oxopropyl]-7-methyl-2H-indazol-2-yl}methyl 2,2-dimethylpropanoate trifluoroacetate] yielded a Papp A→B at 90 min, 10 μM of 5.1 ×10⁻⁶ cm/s and an apparent permeability from basolateral to apical (Papp B→A) at 90 min, 10 μM of 2.9 ×10⁻⁶ cm/s.
For `Cc1cc2cc3cn(nc13)COC(=O)C(C)(C)C/C=C\CC(C)(C)C(=O)OCn1c(=O)c(cc3ccccc31)C1CCN(CC1)C(=O)N[C@@H](C(=O)N1CCN(C3CCN(C)CC3)CC1)C2` [Example 10, (16Z,31R)-14,14,19,19,27-pentamethyl-31-[4-(1-methylpiperidin-4-yl)piperazine-1-carbonyl]-12,21-dioxa-10,23,32,34,40-pentaazahexacyclo[32.2.2.1^2,10.1^23,26.1^25,29.0^4,9]hentetraconta-2,4(9),5,7,16,24,26(40),27,29(39)-nonaene-13,20,33,41-tetrone] the same measures were 0.31 ×10⁻⁶ cm/s and 28.9 ×10⁻⁶ cm/s.
Consider `Cc1cc(C[C@@H](NC(=O)N2CCC(c3cc4ccccc4[nH]c3=O)CC2)C(=O)N2CCN(C3CCN(C)CC3)CC2)cc2cn[nH]c12` [BHV-3500, N-[(2R)-3-(7-methyl-1H-indazol-5-yl)-1-[4-(1-methylpiperidin-4-yl)piperazin-1-yl]-1-oxopropan-2-yl]-4-(2-oxo-1,2-dihydroquinolin-3-yl)piperidine-1-carboxamide, reference compound], for which the apparent permeability from apical to basolateral (Papp A→B) at 90 min, 10 μM in series [1] was under 0.05 ×10⁻⁶ cm/s.
In series [1], `Cc1cc2cc3cn(nc13)COC(=O)C(C)(C)CCCCC(C)(C)C(=O)OCn1c(=O)c(cc3ccccc31)C1CCN(CC1)C(=O)N[C@@H](C(=O)N1CCN(C3CCN(C)CC3)CC1)C2` [Example 125, (31R)-14,14,19,19,27-pentamethyl-31-[4-(1-methylpiperidin-4-yl)piperazine-1-carbonyl]-12,21-dioxa-10,23,32,34,40-pentaazahexacyclo[32.2.2.1^2,10.1^23,26.1^25,29.0^4,9]hentetraconta-2,4,6,8,24,26(40),27,29(39)-octaene-13,20,33,41-tetrone] yielded a Papp A→B at 90 min, 10 μM of 2.2 ×10⁻⁶ cm/s and a basolateral-to-apical permeability (Papp B→A) at 90 min, 10 μM of 13.9 ×10⁻⁶ cm/s.
As to “(R)-(3-(1-(3-(7-methyl-2-(octanoyloxymethyl)-2H-indazol-5-yl)-1-(4-(1-methylpiperidin-4-yl)piperazin-1-yl)-1-oxopropan-2-ylcarbamoyl)piperidin-4-yl)-2-oxoquinolin-1(2H)-yl)methyl octanoate compound with (R)-heptyl 7-methyl-5-(3-(4-(1-methylpiperidin-4-yl)piperazin-1-yl)-2-(4-(1-(octanoyloxymethyl)-2-oxo-1,2-dihydroquinolin-3-yl)piperidine-1-carboxamido)-3-oxopropyl)-1H-indazole-1-carboxylate (1:1) [Example 59]”, in the series with Caco-2 cells, the “Papp A-B” value is 2.2 ×10⁻⁶ cm/s and the “Papp B-A” value was 7.6 ×10⁻⁶ cm/s.
In series [1], `Cc1cc2cc3cn(nc13)COC(=O)C1(C/C=C\CC3(CC3)C(=O)OCn3c(=O)c(cc4ccccc43)C3CCN(CC3)C(=O)N[C@@H](C(=O)N3CCN(C4CCN(C)CC4)CC3)C2)CC1` [Example 13, (16′Z,31′S)-27′-methyl-31′-[4-(1-methylpiperidin-4-yl)piperazine-1-carbonyl]dispiro[cyclopropane-1,14′-[12,21]dioxa-[10,23,32,34,40]pentaazahexacyclo[32.2.2.1^2,10.1^23,26.1^25,29.0^4,9]hentetracontane-19′,1″-cyclopropane]-2′,4′(9′),5′,7′,16′,24′,26′(40′),27′,29′(39′)-nonaene-13′,20′,33′,41′-tetrone trifluoroacetate] returned a Papp A→B at 90 min, 10 μM of 0.839 ×10⁻⁶ cm/s and a Papp B→A at 90 min, 10 μM of 20 ×10⁻⁶ cm/s.

In general, Papp A→B refers to the apparent permeability from the apical to the basolateral side of a cell layer. As a reminder, the Papp B→A is the apparent permeability from the basolateral to the apical side of a cell layer.
